Assay results: US5360803A, “Composition and method for treating cancer” (Dan Farber Cancer Institute, priority 1992, dated 1994)
Read-outs that look alike come from different tables or passages of the source.

Columns and labels:
[1] = system: normal nude mice; experiment: toxicity to normal nude mice
[2] = system: CV-1 cells; experiment: selective killing assay, colony number reduced to 50% of control, normal monkey kidney epithelial cell line CV-1; assay type: cell-based; details: Primates, 24 hours treatment
Description: (§1) The control received culture media only.

[3] = system: CX-1 cells; experiment: selective killing assay, colony number reduced to 50% of control, human colon carcinoma cell line CX-1; assay type: cell-based; details: for Selectivity (ratio of IC50 for CV-1 and IC50 for CX-1): CV-1/CX-1; for IC50 / CX-1 (IC50): human colon carcinoma, 24 hours treatment, colony count after 7 to 10 days;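 on all read-outs here: colonies stained with crystal violet and counted, control cells given medium alone, exposure at 37 °C, normal monkey kidney epithelial CV-1 cells as the non-cancer comparator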
[4] = system: human colon carcinoma CX-1; experiment: anti-human colon carcinoma CX-1 activity using nude mice; assay type: in vivo, Swiss nu/nu mice (human tumor); details: Mus musculus, ip, 24 h, read-out: Tumor Inhibition
Description: Human colon carcinoma cell line CX-1 has been chosen by the National Cancer Institute as a mode for cancer drug screening (NCI Protocol 3C2H2). It was established in culture from the surgical explant of the primary colon adenocarcinoma of a person with no previous chemotherapy. The cultured CX-1 cells, upon subcutaneous injection, can grow readily in nude mice as a moderately- to well-differentiated human colon carcinoma. CEA is expressed as expected for differentiated colon carcinoma cells. Abundant keratin, consistent with epithelial origin, is present. Increased uptake and prolonged retention of delocalized lipophilic cations are observed.
Swiss nu/nu mice obtained from Taconic Farm were housed in a pathogen-free environment. Tumors subcutaneously passaged in nude mice were excised under sterile conditions and converted to a single cell suspension using a metal grid with a 0.4 mm mesh. Red blood cells were lysed by incubation with 0.17M ammonium chloride at 4° C. for 20 minutes. Cells were scored for viability with trypan blue. Viable CX-1 cells (2.5 million) made up in 0.1 ml of […]. The mice were randomly allocated into a control group (five mice) and a treatment group (five mice per group). The drug treatment was commenced the next day. Doses and schedules were developed empirically and were based mainly on information on LD50 and LD1O obtained from preliminary toxicity studies. The control group received an equivalent volume of hydroxypropyl-β-cyclodextrin-5% glucose solution.
The pharmaceutical compositions tested comprised solutions in 5% glucose subjected to sonication at concentrations of 1 mg/ml. Those compounds which were not completely dissolved by this procedure were dissolved hydroxypropyl-β-cyclodextrin using the following method. Hydroxypropyl-β-cyclodextrin (45 g) was mixed with 100 ml of sterilized, double distilled water and stirred for four hours. Each of the compounds to be tested (20 mg) was mixed with 10 ml of hydroxypropyl-β-cyclodextrin solution and sonicated for 60 minutes in the dark. This solution was then diluted in 5% glucose to yield a final compound concentration of 0.5 mg/ml, and further sonicated for 60 minutes in the dark to assure that the compound was completely dissolved.
When the growth of tumors in the control group reached the exponential phase and the size of the tumor was palpable (usually 20 to 30 days after tumor implantation), the experiments were terminated. Tumors in each mouse were excised and weighed using an analytical balance. Total tumor weight in each group from five mice was calculated. Per cent tumor inhibition between the treated group and the control group was then calculated for each group.

[5] = system: LOX cells; experiment: colony assay of Example 1 with human melanoma LOX cell line; assay type: cell-based; details: for Selectivity: CV-1/LOX; for LOX(IC50) / IC50: Table V, human melanoma, 24 hours treatment; for IC50: LOX;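 on all read-outs here: colony formation assay with 24 h exposure at 37 °C, then 7 to 10 days of regrowth, crystal violet staining of colonies, control wells given medium alone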
[6] = system: CRL 1420 cells; experiment: colony assay of Example 1 with human pancreatic carcinoma CRL 1420 cell line; assay type: cell-based; details: for Selectivity: CV-1/CRL-1420;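 on all read-outs here: colony formation assay, cells exposed for 24 h then regrown 7 to 10 days without compound, colonies stained with crystal violet, control given medium alone, normal reference CV-1 monkey kidney epithelial cells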
Description: Human colon carcinoma cell line CX-1 or normal monkey kidney epithelial cell line CV-1 was chosen as representatives of cancer cells and normal cells, respectively. […] CX-1 cells (2,000 cells/well) and CV-1 cells (1,000 cells/well) were plated in 24-well plastic culture plates. […] The control received culture media only. Cells were treated with compounds of General Formulas (I) to (V) at 37° C. for 24 hours. After rinsing with fresh culture medium three times, the cells were further incubated at 37° C. for 7 to 10 days. Cell colonies were fixed and stained with 2% crystal violet in 70% ethanol for 10 minutes and rinsed in water. […] The selectivity is defined as the ratio of IC50 for CV-1 and IC50 for CX-1.

[7] = system: human melanoma LOX; experiment: survival of nude mice implanted with human melanoma LOX; assay type: in vivo, male athymic Swiss nu/nu mouse (human tumor); details: Mus musculus, ip, read-out: T/C
[8] = system: MCF-7 cells; experiment: colony assay of Example 1 with human breast carcinoma MCF-7 cell line; assay type: cell-based; details: for Selectivity: CV-1/MCF-7
Description: as §1

[9] = system: EJ cells; experiment: colony assay of Example 1 with human bladder carcinoma EJ cell line; assay type: cell-based; details: for Selectivity: CV-1/EJ; for IC50: EJ;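 on all read-outs here: colony formation assay with 24 h compound exposure at 37 °C, then 7–10 days drug-free regrowth, colonies stained with crystal violet, controls given medium alone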
[10] = CV-1, Table III, normal monkey kidney epithelial cells, colony count after 7 to 10 days
[11] = Homo sapiens, 24 h, Table VII, human pancreatic carcinoma, 24 hours treatment
[12] = Homo sapiens, 24 h, Table IV, human bladder carcinoma, 24 hours treatment
[13] = Homo sapiens, MCF7, 24 h, Table VI, human breast carcinoma, 24 hours treatment
[14] = 5 mg/kg i.p. on day 1, 5, 8, 11
[15] = Table VII, human pancreatic carcinoma, 24 hours treatment
[16] = Table IV, human bladder carcinoma, 24 hours treatment

IC50 [6, 11] [µg/mL] | IC50 [9, 12] [µg/mL] | SMILES | toxicity to normal nude mice [1] | IC50 [2, 10] [µg/mL] | Selectivity (ratio of IC50 for CV-1 and IC50 for CX-1) [3] | IC50 ([3]; Homo sapiens, CX-1, Table III) [µg/mL] | Selectivity [5] | Selectivity [6] | IC50 ([2]; CV-1, 24 h, Table IV) [µg/mL] | IC50 ([2]; CV-1, 24 h, Table V) [µg/mL] | IC50 ([2]; CV-1, 24 h, Table VI) [µg/mL] | IC50 ([2]; CV-1, 24 h, Table VII) [µg/mL] | Selectivity [8] | Selectivity [9] | other results
– | – | CCN1/C(=C/C=C/c2sc3ccccc3[n+]2CC)Sc2ccccc21 [A, reference compound] | highly toxic to normal nude mice | 0.6 | – | – | – | – | – | – | – | – | – | – | –
– | – | CCN1C(=CC=Cc2sc3c4ccccc4ccc3[n+]2CC)Sc2c1ccc1ccccc21 [B, reference compound] | highly toxic to normal nude mice | < 0.1 | < 2 | 0.05 | – | – | – | – | – | – | – | – | –
0.07 | 0.2 | CCn1c(=CC2=[N+](CC)CCS2)sc(=C2Sc3ccccc3N2C)c1=O [Compound 16] | – | 20 | 667 | – | 222 | 285 | 20 | 20 | 20 | 20 | 333 | 100 | inhibition in vivo at 5 mg/kg ([4]; 5 mg/kg i.p. on day 1, 5, 8, 12, 15, 19): 82.9%; LOX(IC50) [5]: 0.09 µg/mL; response vs control in vivo at 5 mg/kg ([7]; 24 h, 5 mg/kg i.p. on day 1, 4, 8, 11): 147%; CX-1 (IC50) ([3]; Table III): 0.03 µg/mL; MCF-7(IC50) ([8]; Table VI, human breast carcinoma, 24 hours treatment): 0.06 µg/mL
0.09 | 0.1 | CCN1C(=c2sc(=Cc3oc4ccccc4[n+]3CC)n(CC)c2=O)Sc2ccccc21 [Compound 19] | – | 10 | 500 | 0.02 | > 200 | 111 | 20 | 20 | 10 | 10 | 167 | 200 | inhibition in vivo at 5 mg/kg ([4]; 5 mg/kg i.p. on day 1, 9, 13): 60.4%; IC50 ([5]; Homo sapiens, 24 h): < 0.1 µg/mL; IC50 [8, 13]: 0.06 µg/mL
– | – | CCn1c(=Cc2oc3ccccc3[n+]2C)sc(=C2Sc3ccccc3N2C)c1=O [Compound 26] | – | – | 500 | – | 400 | 500 | – | – | 20 | – | 333 | 400 | inhibition in vivo at 5 mg/kg [4, 14]: 53.6%; LOX(IC50) [5]: 0.05 µg/mL; CRL-1420(IC50) [6, 15]: 0.04 µg/mL; CX-1 (IC50) ([3]; Table III): 0.04 µg/mL; IC50 [8, 13]: 0.06 µg/mL; EJ (IC50) [9, 16]: 0.05 µg/mL
– | – | CCn1c(=Cc2[se]c3ccccc3[n+]2CC)sc(=C2Sc3ccccc3N2C)c1=O [Compound 27] | – | 20 | 667 | – | 1333 | 1333 | – | – | – | – | 333 | 1000 | inhibition in vivo at 2.5 mg/kg [4]: 40.9%; IC50 [5]: 0.015 µg/mL; IC50 [6, 15]: 0.015 µg/mL; IC50 ([2]; CV-1, Table IV): 20 µg/mL; IC50 ([2]; CV-1, Table V): 20 µg/mL; IC50 ([3]; CX-1, Table III): 0.03 µg/mL; IC50 ([8]; MCF7, Table VI, human breast carcinoma, 24 hours treatment): 0.06 µg/mL; IC50 [9, 16]: 0.02 µg/mL
0.05 | 0.04 | CCn1c(=C2CCC[n+]3c2sc2ccccc23)sc(=C2Sc3ccccc3N2C)c1=O [Compound 39] | – | 20 | 500 | 0.04 | 666 | 400 | 20 | 20 | 20 | 20 | 222 | 500 | inhibition in vivo at 5 mg/kg [4, 14]: 74.9%; IC50 ([5]; Homo sapiens, 24 h): 0.03 µg/mL; response vs control in vivo at 5 mg/kg ([7]; 24 h, 5 mg/kg i.p. on day 1, 4, 11, 15, 18): 154%; IC50 [8, 13]: 0.09 µg/mL
– | – | CCCN1C(=CC=CC=Cc2oc3ccccc3[n+]2CCC)Oc2ccccc21 [E, reference compound] | less toxic to normal nude mice | 6 | 12 | 0.5 | – | – | – | – | – | – | – | – | –
– | – | CCN1C(=CC=CC=Cc2sc3ccccc3[n+]2CC)Oc2ccccc21 [F, reference compound] | less toxic to normal nude mice | 1.5 | 50 | 0.03 | – | – | – | – | – | – | – | – | –
– | – | CCN1C(=CC(C)=Cc2sc3c4ccccc4ccc3[n+]2CC)Sc2c1ccc1ccccc21 [G, reference compound] | highly toxic to normal nude mice | 0.1 | 5 | 0.02 | – | – | – | – | – | – | – | – | –
– | – | CCN1C(=CC=C(Cl)C=Cc2sc3ccc4ccccc4c3[n+]2CC)Sc2ccc3ccccc3c21 [H, reference compound] | highly toxic to normal nude mice | 0.1 | 2.5 | 0.04 | – | – | – | – | – | – | – | – | –

SMILES | IC50 [6, 11] [µg/mL] | IC50 [9, 12] [µg/mL] | toxicity to normal nude mice [1] | IC50 [2, 10] [µg/mL] | Selectivity (ratio of IC50 for CV-1 and IC50 for CX-1) [3] | IC50 ([3]; Homo sapiens, CX-1, Table III) [µg/mL] | Selectivity [5] | Selectivity [6] | IC50 ([2]; CV-1, 24 h, Table IV) [µg/mL] | IC50 ([2]; CV-1, 24 h, Table V) [µg/mL] | IC50 ([2]; CV-1, 24 h, Table VI) [µg/mL] | IC50 ([2]; CV-1, 24 h, Table VII) [µg/mL] | Selectivity [8] | Selectivity [9] | other results
CCn1c(=Cc2ccc3ccccc3[n+]2CC)sc(=C2Sc3ccccc3N2C)c1=O [Compound 21] | 0.03 | 0.022 | – | – | 800 | – | 261 | 261 | 8 | 8 | – | 8 | – | 364 | inhibition in vivo at 2.5 mg/kg ([4]; 2.5 mg/kg i.p. on day 1, 5, 8, 12): 50.2%; IC50 ([5]; Homo sapiens, 24 h): 0.03 µg/mL; response vs control in vivo at 5 mg/kg ([7]; 5 mg/kg i.p. on day 1, 2.5 mg/kg on day 5, 8): 133%; CX-1 (IC50) ([3]; Table III): 0.01 µg/mL
